Test results as given in patent US10233201B2, “Class of HDAC inhibitors expands the renal progenitor cells population and improves the rate of recovery from acute kidney injury” (University of Pittsburgh—Of the Commonwealth System of …, priority 2012, dated 2019).

Assays:
[1] = tested on: renal progenitor cells (lhx1a expression); assay: In situ hybridization for lhx1a expression in 10-somite embryos (renal progenitor cell expansion); format: in vivo; details: for lhx1a expansion class, 800 nM: 800 nM from 2 hpf; as to lhx1a expansion class, 800 nM: key: effective (+); partially effective (+/−); ineffective (−); Analogs that killed all embryos at a given concentration before reaching 10 somites are listed as XX
In short: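 Zebrafish embryos treated with compound, then colorimetric whole-mount in situ hybridization for lhx1a mRNA at 10-somite stage (hybridization 65 °C). Percent embryos with expanded kidney field counted manually; EC50 read as the 50% point of the plotted curve.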

renal progenitor cells = assay: Tg(lhx1a:EGFP) reporter: renal progenitor cell counting; format: in vivo, zebrafish
Method: Tg(lhx1a:EGFP)^pt303 embryos were treated with 3 μM PTBA and then fixed in 4% paraformaldehyde in PBS for 8 hours at 4° C. Embryos were washed in PBS containing 0.1% TWEEN 20 (PBT) and incubated in 1 μg/ml DAPI in PBT for 30 minutes at room temperature. Embryos were flat-mounted on glass slides with Cytoseal 60 and imaged with either a Leica M205 FA epifluorescent microscope or an Olympus FluoView 1000 confocal microscope. Confocal projections contained stacks of six 3 μm images. A predefined box was positioned at the most posterior region of the notochord and included the most lateral GFP-positive cell in a kidney field. The cells that were positive for both GFP and DAPI within this box were counted manually with the aid of ImageJ. Variances of the control and PTBA-treated groups were compared by F test and found to be unequal. Therefore, a two-tailed t test with unequal variance was used to determine significance (α=0.05).
For all second-generation compounds, the cad17:EGFP transgene is used as the primary readout to assay for expansion of kidney field (FIG. 35). PTBA analogues that expand cad17:EGFP expression are subjected to a secondary screen. […] Such compounds are assessed in target efficacy and toxicity assays.

[2] = tested on: human HDACs (HeLa cell nuclear extract); assay: Fluorescence histone deacetylation assay with HeLa cell nuclear extract; format: biochemical
[3] = tested on: proximal convoluted tubule cells; assay: Gentamycin-induced AKI in zebrafish larvae: renal cell proliferation (EdU); format: in vivo; details: 4 μM added 2 days post injection of gentamicin; larvae at 5 days post injection
Method: FIG. 42A is a graph showing the results of an AKI model using gentamycin-induced injury. AKI is generated as per a recent publication, Cianciolo Cosenitino, C., et al. ((2010) Intravenous microinjections of zebrafish larvae to study acute kidney injury. JoVE August 4 (42), pii: 2079. doi: 10.3791/2079). Four micromolar m4PTB (UPHD-00025) was added to the zebrafish E3 media in 0.5% DMSO at 2 days post injection of gentamicin and the larvae are scored daily for four days (6 days post injection) as alive or dead, with the final data tallied on day 6 post injection FIG. 42B.
Proliferation of renal cells was examined post AKI for m4PTB in zebrafish larvae (FIG. 43). AKI is generated as above with gentamycin, essentially as described in Example 11. Four μM m4PTB was added 2 days post injection of gentamicin. Zebrafish larvae at 5 days post injection were treated for 1 hour with the thymidine analogue EdU (10 milimolar), which incorporates into dividing (proliferating cells) while the larvae are in the zebrafish E3 media. The larvae where then fixed and processed for histology to count the number of proliferating cells in the proximal convulted tubule (as marked by the antibody 3G8). The number of proliferating cells was divided by the total number of cells in the proximal convoluted tubule to generate the percent of proliferation also known as the proliferation index as shown in FIG. 43.

SMILES | lhx1a expansion class, 800 nM [1] | embryos with expanded lhx1a expression ([1]; 0.5% DMSO at 5 hpf, 3 μM PTBA at 8 hpf) [%] | responders at 0.8 µM ([1]; Danio rerio, 800 nM, read-out: embryos with expanded lhx1a expression (% expansion)) [%] | embryos with expanded lhx1a expression ([1]; injected with 200 pg DN-RARα mRNA, then 3 μM PTBA at 5 hpf) [%] | increase in the number of renal progenitor cells (renal progenitor cells; 3 μM, 10-somite Tg(lhx1a:EGFP)pt303 embryos) [fold] | HDAC activity, % of the control value ([2]; 5 mM compound, 10 μg HeLa extract) [%] | reduction of HDAC activity ([2]; millimolar concentrations) [%] | effective dose for the renal progenitor assay ([1]; zebrafish, in vivo) [nM] | lowest dose at which expansion of the renal progenitor cell population starts to be seen (renal progenitor cells; lhx1a:EGFP transgene, data not shown) [nM] | renal cell proliferation (proliferation index) [3]
O=C(O)CCCSc1ccccc1 [PTBA, 4-(phenylthio)butanoic acid] | +/− | 97 | < 25 | 19 | 2.4 | 30 | 70 | – | – | –
COC(=O)CCCSc1ccccc1 [UPHD-00025, methyl 4-(phenylsulfanyl) butanoate] | +/− | – | – | – | – | – | – | ~800 | 600 | significantly increased
